{"source": "ChEMBL document CHEMBL1201862", "about": "“PubChem BioAssay data set” (2004)", "experiment_in_all_cases": "NCI anticancer screen, dose series, 48 h", "key": {"SF-268": {"test_system": "SF-268"}, "MDA-MB-231": {"test_system": "MDA-MB-231"}, "UO-31": {"test_system": "UO-31"}, "KM-20L2": {"test_system": "KM-20L2"}, "OVCAR-5": {"test_system": "OVCAR-5"}, "UACC-257": {"test_system": "UACC-257"}, "786-0": {"test_system": "786-0"}, "EKVX": {"test_system": "EKVX"}, "DMS-114": {"test_system": "DMS-114"}, "CAKI-1": {"test_system": "CAKI-1"}, "Malme-3M": {"test_system": "Malme-3M"}, "SR": {"test_system": "SR"}, "MOLT-4": {"test_system": "MOLT-4"}, "KM12": {"test_system": "KM12"}, "HT-29": {"test_system": "HT-29"}, "HOP-62": {"test_system": "HOP-62"}, "LXFL 529": {"test_system": "LXFL 529"}, "MCF7": {"test_system": "MCF7"}, "SN12C": {"test_system": "SN12C"}, "SK-MEL-28": {"test_system": "SK-MEL-28"}, "OVCAR-4": {"test_system": "OVCAR-4"}, "T47D": {"test_system": "T47D"}, "SW-620": {"test_system": "SW-620"}, "K562": {"test_system": "K562"}, "A549": {"test_system": "A549"}, "MDA-MB-435": {"test_system": "MDA-MB-435"}, "SF-539": {"test_system": "SF-539"}, "SF-295": {"test_system": "SF-295"}, "LOX IMVI": {"test_system": "LOX IMVI"}, "XF498": {"test_system": "XF498"}, "SK-OV-3": {"test_system": "SK-OV-3"}, "UACC-62": {"test_system": "UACC-62"}, "PC-3": {"test_system": "PC-3"}, "IGROV-1": {"test_system": "IGROV-1"}, "HL-60": {"test_system": "HL-60"}, "HCC 2998": {"test_system": "HCC 2998"}, "NCI-H522": {"test_system": "NCI-H522"}, "SNB-19": {"test_system": "SNB-19"}, "DMS-273": {"test_system": "DMS-273"}, "HOP-18": {"test_system": "HOP-18"}, "M19-MEL": {"test_system": "M19-MEL"}, "DU-145": {"test_system": "DU-145"}, "SK-MEL-5": {"test_system": "SK-MEL-5"}, "Hs-578T": {"test_system": "Hs-578T"}, "NCI-H460": {"test_system": "NCI-H460"}, "RPMI-8226": {"test_system": "RPMI-8226"}, "RXF 393": {"test_system": "RXF 393"}, "ACHN": {"test_system": "ACHN"}, "A498": {"test_system": "A498"}, "U-251": {"test_system": "U-251"}, "COLO 205": {"test_system": "COLO 205"}, "HCT-116": {"test_system": "HCT-116"}, "NCI-H23": {"test_system": "NCI-H23"}, "HCT-15": {"test_system": "HCT-15"}, "OVCAR-8": {"test_system": "OVCAR-8"}, "SNB-78": {"test_system": "SNB-78"}, "M14": {"test_system": "M14"}, "BT-549": {"test_system": "BT-549"}, "NCI-H226": {"test_system": "NCI-H226"}, "SNB-75": {"test_system": "SNB-75"}, "TK-10": {"test_system": "TK-10"}, "CCRF-CEM": {"test_system": "CCRF-CEM"}, "DLD-1": {"test_system": "DLD-1"}, "OVCAR-3": {"test_system": "OVCAR-3"}}, "note": "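Protocol summary: plate cells (96-well), add compound at 5 concentrations, incubate 48 h, interpolate endpoints linearly. The concentration for 50% growth inhibition is given as GI50.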 Active and inactive are the calls of the source. Cut-off read from the data, not from the text of the source: active = GI50 up to about 1.1 µM and inactive = higher.", "data": [{"smiles": "Cc1ccc(NC(=O)NC(=O)c2ccc([N+](=O)[O-])cc2[N+](=O)[O-])cc1Oc1ncc(Cl)cn1", "values": [{"measurement": "GI50", "setting": "SF-268", "value": "713 nM (active)"}, {"measurement": "GI50", "setting": "MDA-MB-231", "value": "614 nM (active)"}, {"measurement": "GI50", "setting": "UO-31", "value": "735 nM (active)"}, {"measurement": "GI50", "setting": "KM-20L2", "value": "234 nM (active)"}, {"measurement": "GI50", "setting": "OVCAR-5", "value": "828 nM (active)"}, {"measurement": "GI50", "setting": "UACC-257", "value": "689 nM (active)"}, {"measurement": "GI50", "setting": "786-0", "value": "466 nM (active)"}, {"measurement": "GI50", "setting": "EKVX", "value": "> 10000 nM (inactive)"}, {"measurement": "GI50", "setting": "DMS-114", "value": "484 nM (active)"}, {"measurement": "GI50", "setting": "CAKI-1", "value": "479 nM (active)"}, {"measurement": "GI50", "setting": "Malme-3M", "value": "92.5 nM (active)"}, {"measurement": "GI50", "setting": "SR", "value": "409 nM (active)"}, {"measurement": "GI50", "setting": "MOLT-4", "value": "362 nM (active)"}, {"measurement": "GI50", "setting": "KM12", "value": "252 nM (active)"}, {"measurement": "GI50", "setting": "HT-29", "value": "300 nM (active)"}, {"measurement": "GI50", "setting": "HOP-62", "value": "277 nM (active)"}, {"measurement": "GI50", "setting": "LXFL 529", "value": "360 nM (active)"}, {"measurement": "GI50", "setting": "MCF7", "value": "164 nM (active)"}, {"measurement": "GI50", "setting": "SN12C", "value": "578 nM (active)"}, {"measurement": "GI50", "setting": "SK-MEL-28", "value": "2900 nM (inactive)"}, {"measurement": "GI50", "setting": "OVCAR-4", "value": "11400 nM (inactive)"}, {"measurement": "GI50", "setting": "T47D", "value": "12700 nM (inactive)"}, {"measurement": "GI50", "setting": "SW-620", "value": "332 nM (active)"}, {"measurement": "GI50", "setting": "K562", "value": "275 nM (active)"}, {"measurement": "GI50", "setting": "A549", "value": "542 nM (active)"}, {"measurement": "GI50", "setting": "MDA-MB-435", "value": "63 nM (active)"}, {"measurement": "GI50", "setting": "SF-539", "value": "287 nM (active)"}, {"measurement": "GI50", "setting": "SF-295", "value": "406 nM (active)"}, {"measurement": "GI50", "setting": "LOX IMVI", "value": "637 nM (active)"}, {"measurement": "GI50", "setting": "XF498", "value": "843 nM (active)"}, {"measurement": "GI50", "setting": "SK-OV-3", "value": "908 nM (active)"}, {"measurement": "GI50", "setting": "UACC-62", "value": "229 nM (active)"}, {"measurement": "GI50", "setting": "PC-3", "value": "117 nM (active)"}, {"measurement": "GI50", "setting": "IGROV-1", "value": "1130 nM (inactive)"}, {"measurement": "GI50", "setting": "HL-60", "value": "218 nM (active)"}, {"measurement": "GI50", "setting": "HCC 2998", "value": "271 nM (active)"}, {"measurement": "GI50", "setting": "NCI-H522", "value": "195 nM (active)"}, {"measurement": "GI50", "setting": "SNB-19", "value": "480 nM (active)"}, {"measurement": "GI50", "setting": "DMS-273", "value": "318 nM (active)"}, {"measurement": "GI50", "setting": "HOP-18", "value": "10300 nM (inactive)"}, {"measurement": "GI50", "setting": "M19-MEL", "value": "741 nM (active)"}, {"measurement": "GI50", "setting": "DU-145", "value": "731 nM (active)"}, {"measurement": "GI50", "setting": "SK-MEL-5", "value": "195 nM (active)"}, {"measurement": "GI50", "setting": "Hs-578T", "value": "50 nM (active)"}, {"measurement": "GI50", "setting": "NCI-H460", "value": "338 nM (active)"}, {"measurement": "GI50", "setting": "RPMI-8226", "value": "292 nM (active)"}, {"measurement": "GI50", "setting": "RXF 393", "value": "175 nM (active)"}, {"measurement": "GI50", "setting": "ACHN", "value": "1330 nM (inactive)"}, {"measurement": "GI50", "setting": "A498", "value": "500 nM (active)"}, {"measurement": "GI50", "setting": "U-251", "value": "208 nM (active)"}, {"measurement": "GI50", "setting": "COLO 205", "value": "415 nM (active)"}, {"measurement": "GI50", "setting": "HCT-116", "value": "333 nM (active)"}, {"measurement": "GI50", "setting": "NCI-H23", "value": "564 nM (active)"}, {"measurement": "GI50", "setting": "HCT-15", "value": 440, "unit": "nM"}, {"measurement": "GI50", "setting": "OVCAR-8", "value": "468 nM (active)"}, {"measurement": "GI50", "setting": "SNB-78", "value": "346 nM (active)"}, {"measurement": "GI50", "setting": "M14", "value": "380 nM (active)"}, {"measurement": "GI50", "setting": "BT-549", "value": "17900 nM (inactive)"}, {"measurement": "GI50", "setting": "NCI-H226", "value": "449 nM (active)"}, {"measurement": "GI50", "setting": "SNB-75", "value": "75.2 nM (active)"}, {"measurement": "GI50", "setting": "TK-10", "value": "14400 nM (inactive)"}, {"measurement": "GI50", "setting": "CCRF-CEM", "value": "292 nM (active)"}, {"measurement": "GI50", "setting": "DLD-1", "value": "421 nM (active)"}, {"measurement": "GI50", "setting": "OVCAR-3", "value": "355 nM (active)"}]}]}
